Where two headings read alike, the source gives them in different places.
Experiments:
[1] = target: T1, NanH-D237A (Tannerella forsythia, UniProt G8UIQ1, D224A); assay: crystal structure ([…] soak, […] Å) and tryptophan fluorescence quenching; assay type: binding
T1 construct: gene BFO_2207; C-terminally hexahistidine-tagged NanH
T1 sequence (G8UIQ1 21-539 D224A): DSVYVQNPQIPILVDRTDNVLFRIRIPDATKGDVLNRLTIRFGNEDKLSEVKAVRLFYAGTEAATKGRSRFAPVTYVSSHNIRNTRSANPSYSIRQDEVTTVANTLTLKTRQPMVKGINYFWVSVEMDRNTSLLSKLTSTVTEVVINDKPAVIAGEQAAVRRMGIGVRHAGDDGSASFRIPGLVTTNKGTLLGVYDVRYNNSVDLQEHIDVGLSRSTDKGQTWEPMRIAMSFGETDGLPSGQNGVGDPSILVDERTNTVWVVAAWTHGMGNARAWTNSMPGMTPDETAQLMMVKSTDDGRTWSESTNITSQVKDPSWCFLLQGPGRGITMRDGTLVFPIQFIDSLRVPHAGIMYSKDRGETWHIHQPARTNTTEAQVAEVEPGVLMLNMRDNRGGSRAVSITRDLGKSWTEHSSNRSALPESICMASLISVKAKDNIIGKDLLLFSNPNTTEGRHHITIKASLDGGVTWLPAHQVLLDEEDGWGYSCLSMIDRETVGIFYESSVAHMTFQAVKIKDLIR

[2] = target: T1, NanH-D237A; assay: as above; assay type: binding; remark: listed apart in the source

`CC(=O)N[C@H]1[C@H]([C@H](O)[C@H](O)CO)O[C@@](O[C@H]2[C@@H](O)[C@@H](CO)O[C@@H](O[C@H]3[C@H](O)[C@@H](O)C(O)O[C@@H]3CO)[C@@H]2O)(C(=O)O)C[C@@H]1O` (some centres unmarked) [3-SL] showed a Kd [1] of 305 ± 91.5 µM.

Work on `CC(=O)N[C@H]1[C@H]([C@H](O)[C@H](O)CO)O[C@@](OC[C@H]2O[C@@H](O[C@H]3[C@H](O)[C@@H](O)C(O)O[C@@H]3CO)[C@H](O)[C@@H](O)[C@H]2O)(C(=O)O)C[C@@H]1O` (some centres unmarked) [6-SL] yielded a Kd [2] of 133 ± 48.3 µM.

From PMC9472817, “Structural and functional characterisation of a stable, broad-specificity multimeric sialidase from the oral pathogen Tannerella forsythia” (Biochemical Journal, 2022)
